According to US9440933B2, “Azole derivative, method for producing same, intermediate compound, and agricultural or horticultural chemical agent and industrial material protecting agent” (KUREHA CORPORATION, priority 2011, dated 2016):

Legend:
[1] = system: Wheat fusarium blight-causing microbe (Fusarium graminearum); type: cell-based; settings: 50 mg/L
[2] = system: Wheat glume blotch-causing microbe (Phaeosphaeria nodorum); test: Antimicrobial activity to various pathogenic microbes: P.n; settings: 50 mg/L
Procedure: (§1) An inventive compound was dissolved in dimethylsulfoxide 2 ml. The solution 0.6 ml was added to a PDA medium (potato-dextrose-agar medium) 60 ml at around 60° C.
(§2) A flat plate containing a test microbe (wheat leaf blight-causing microbe) cultured separately was punched into pieces with a cork borer having a diameter of 4 mm and the circular plate obtained was placed on the flat plate media containing the chemical described above. The plates were cultured at 25° C. for 14 days after inoculation and the diameter of the microbial colony was determined. Hyphal expansion-inhibiting rate was calculated according to the following equation: R=100(dc−dt)/dc (wherein, R: hyphal expansion-inhibiting rate (%), dc: diameter of microbial colony on non-treated flat plate, dt: diameter of microbial colony on chemically-treated flat plate).
(§3) In this Test Example, the antimicrobial activity of the inventive compounds to various plant disease-causing fungi and industrial material-eroding microorganisms was studied by the method described in Example 1.
(§4) The results thus obtained were evaluated in 5 stages according to the criteria below:
Wheat glume blotch-causing microbe (Phaeosphaeria nodorum) P.n

[3] = system: wheat leaf rust-causing microbe; test: Wheat leaf rust-controlling activity (foliar spray, pot test); type: in vivo, Puccinia recondita; settings: Concentration 25 g/ha; wettable powder sprayed on wheat (Norin No. 61), 9 to 14 days after inoculation
[4] = system: Barley loose smut-causing microbe (Ustilago nuda); test: Antimicrobial activity to various pathogenic microbes: U.n; settings: 50 mg/L
Procedure: as §1
(§5) The plates were cultured at 25° C. for 14 days after inoculation and the diameter of the microbial colony was determined. Hyphal expansion-inhibiting rate was calculated according to the following equation: R=100(dc−dt)/dc (wherein, R: hyphal expansion-inhibiting rate (%), dc: diameter of microbial colony on non-treated flat plate, dt: diameter of microbial colony on chemically-treated flat plate).
as §4
Barley loose smut-causing microbe (Ustilago nuda) U.n

[5] = system: Apple alternaria blotch-causing microbe (Alternaria alternata); test: Antimicrobial activity to various pathogenic microbes: A.m; settings: 50 mg/L
Procedure: as §1, §2, §3, §4
Apple alternaria blotch-causing microbe (Alternaria alternata) A.m

[6] = system: Cucumber Fusarium wilt-causing microbe (Fusarium oxysporum); test: Antimicrobial activity to various pathogenic microbes: F.c; settings: 50 mg/L
Procedure: as §1, §2, §4

[7] = system: Rice bakanae disease-causing microbe (Gibberella fujikuroi); test: Antimicrobial activity to various pathogenic microbes: G.f; settings: 50 mg/L
Procedure: as §1, §2, §4

[8] = system: Wheat eye spot-causing microbe (Pseudocercoporella herpotrichoides); test: Antimicrobial activity to various pathogenic microbes: P.h; settings: 50 mg/L
Procedure: as §1, §5, §4
Wheat eye spot-causing microbe (Pseudocercoporella herpotrichoides) P.h

[9] = system: Barley scald-causing microbe (Rhynchosporium secalis); test: Antimicrobial activity to various pathogenic microbes: R.sec; settings: 50 mg/L
Procedure: as §1, §2, §3, §4
Barley scald-causing microbe (Rhynchosporium secalis) R.sec

[10] = system: wheat powdery mildew-causing microbes; test: Controlling activity to wheat powdery mildew of seed treatment (pot test); type: in vivo, Erysiphe graminis f. sp tritici; settings: 2 mg in DMSO applied to wheat seeds 1 g, 14 to 28 days after seeding
Procedure: Controlling activity to wheat powdery mildew was examined in a pot test. Each of the inventive compounds […]-53, and a comparative compound (1) was weighed in an amount of 2 mg and dissolved in DMSO (18 μl). The solution thus prepared was applied to wheat seeds 1 g in a vial, 8 wheat seeds were seeded in a 80 cm^2 pot. The wheat was grown, as water was supplied from blow, in a greenhouse where wheat powdery mildew-causing microbes are present abundantly. The incidence rate was determined and the controlling rate and additionally the controlling index calculated 14 to 28 days after seeding. The controlling rate was calculated and the wheat powdery mildew controlling index determined according to the following equation: Controlling rate=(1-Incidence rate in treated region/Incidence rate in non-treated region)×100(%) [table]

wheat = test: Damage to wheat (growth inhibition) by seed treatment (pot test); settings: 2 mg in DMSO applied to wheat seeds 1 g, 14 to 28 days after seeding, larger index = smaller damage
[11] = system: Gray mold-causing microbe (Botrytis cinerea); test: Antimicrobial activity to various pathogenic microbes: B.c; settings: 50 mg/L
Procedure: as §1, §2, §3, §4
Gray mold-causing microbe (Botrytis cinerea) B.c

[12] = system: Rice blast-causing microbe (Pyricularia oryzae); type: cell-based; settings: 50 mg/L
[13] = system: Sclerotinia rot-causing microbe (Sclerotinia sclerotiorum); test: Antimicrobial activity to various pathogenic microbes: S.s; settings: 50 mg/L
Procedure: as §1, §2, §4
Sclerotinia rot-causing microbe (Sclerotinia sclerotiorum) S.s

[14] = system: wheat leaf blight-causing microbe; test: Antimicrobial activity to wheat leaf blight-causing microbe (PDA plate, hyphal expansion inhibition); type: cell-based, Septoria tritici; settings: PDA medium, 25° C., 14 days; for inhibition at 50 µg/mL: read-out: Growth inhibition
Procedure: In this Test Example, antimicrobial activity of the inventive compounds to wheat leaf blight-causing microbe was determined and compared with that of the comparative compound (1).

Structure (SMILES)	Growth inhibition (hyphal expansion-inhibiting rate grade) F.g [1]	Growth inhibition (hyphal expansion-inhibiting rate grade) P.n [2]	Controlling index [3]	Growth inhibition (hyphal expansion-inhibiting rate grade) U.n [4]	Growth inhibition (hyphal expansion-inhibiting rate grade) A.m [5]	Growth inhibition (hyphal expansion-inhibiting rate grade) F.c [6]	Growth inhibition (hyphal expansion-inhibiting rate grade) G.f [7]	Growth inhibition (hyphal expansion-inhibiting rate grade) P.h [8]	Growth inhibition (hyphal expansion-inhibiting rate grade) R.sec [9]	Controlling index Wheat powdery mildew [10]	Damage index Growth inhibition (wheat)	Growth inhibition (hyphal expansion-inhibiting rate grade) B.c [11]	Growth inhibition (hyphal expansion-inhibiting rate grade) P.o [12]	Growth inhibition (hyphal expansion-inhibiting rate grade) S.s [13]	Growth inhibition ([14]; Concentration 50 mg/L)	inhibition at 50 µg/mL ([14]; 336 h, Concentration 50 mg/L) [%]	inhibition at 1.25 µg/mL ([14]; 336 h, test sample concentration 1.25 mg/L, read-out: hyphal expansion-inhibiting rate) [%]
CNC(=O)[C@]1(C)CC[C@H](Cc2ccc(Cl)cc2)[C@@]1(O)Cn1cncn1 (racemic) [Compound I-148, N-methyl-(1RS,2SR,3RS)-3-(4-chlorobenzyl)-2-hydroxy-1-methyl-2-(1H-1,2,4-triazol-1-ylmethyl)cyclopentane carboxyamide]	5 (hyphal expansion-inhibiting rate: 80% or more)	5 (hyphal expansion-inhibiting rate: 80% or more)	5 (81 to 100)	5 (hyphal expansion-inhibiting rate: 80% or more)	5 (hyphal expansion-inhibiting rate: 80% or more)	5 (hyphal expansion-inhibiting rate: 80% or more)	5 (hyphal expansion-inhibiting rate: 80% or more)	5 (hyphal expansion-inhibiting rate: 80% or more)	5 (hyphal expansion-inhibiting rate: 80% or more)	5 (Controlling rate: 40 or more)	5	5 (hyphal expansion-inhibiting rate: 80% or more)	5 (hyphal expansion-inhibiting rate: 80% or more)	5 (hyphal expansion-inhibiting rate: 80% or more)	5 (hyphal expansion-inhibiting rate: 80% or more)		
C=CCOC(=O)[C@]1(C)CC[C@H](Cc2ccc(Cl)cc2)[C@@]1(O)Cn1cncn1 (racemic) [Compound I-134, allyl-(1RS,2SR,3RS)-3-(4-chlorobenzyl)-2-hydroxy-1-methyl-2-(1H-1,2,4-triazol-1-ylmethyl)cyclopentanecarboxylate]	5 (hyphal expansion-inhibiting rate: 80% or more)	5 (hyphal expansion-inhibiting rate: 80% or more)	5 (81 to 100)	5 (hyphal expansion-inhibiting rate: 80% or more)	5 (hyphal expansion-inhibiting rate: 80% or more)	5 (hyphal expansion-inhibiting rate: 80% or more)	5 (hyphal expansion-inhibiting rate: 80% or more)	5 (hyphal expansion-inhibiting rate: 80% or more)	5 (hyphal expansion-inhibiting rate: 80% or more)	5 (Controlling rate: 40 or more)	3 (20% or more and less than 40%)	5 (hyphal expansion-inhibiting rate: 80% or more)	5 (hyphal expansion-inhibiting rate: 80% or more)	5 (hyphal expansion-inhibiting rate: 80% or more)		> 80	
CCOC(=O)[C@]1(C)CC[C@H](Cc2ccc(Cl)cc2)[C@@]1(O)Cn1cncn1 (racemic) [Compound I-133, ethyl-(1RS,2SR,3RS)-3-(4-chlorobenzyl)-2-hydroxy-1-methyl-2-(1H-1,2,4-triazol-1-ylmethyl)cyclopentanecarboxylate]	5 (hyphal expansion-inhibiting rate: 80% or more)	5 (hyphal expansion-inhibiting rate: 80% or more)	5 (81 to 100)	5 (hyphal expansion-inhibiting rate: 80% or more)	5 (hyphal expansion-inhibiting rate: 80% or more)	5 (hyphal expansion-inhibiting rate: 80% or more)	5 (hyphal expansion-inhibiting rate: 80% or more)	5 (hyphal expansion-inhibiting rate: 80% or more)	5 (hyphal expansion-inhibiting rate: 80% or more)	5 (Controlling rate: 40 or more)	4 (1% or more and less than 20%)	5 (hyphal expansion-inhibiting rate: 80% or more)	5 (hyphal expansion-inhibiting rate: 80% or more)	5 (hyphal expansion-inhibiting rate: 80% or more)		> 80	
CCCOC(=O)[C@]1(C)CC[C@H](Cc2ccc(Cl)cc2)[C@@]1(O)Cn1cncn1 (racemic) [Compound I-136, n-propyl-(1RS,2SR,3RS)-3-(4-chlorobenzyl)-2-hydroxy-1-methyl-2-(1H-1,2,4-triazol-1-ylmethyl)cyclopentanecarboxylate]	5 (hyphal expansion-inhibiting rate: 80% or more)	5 (hyphal expansion-inhibiting rate: 80% or more)	5 (81 to 100)	5 (hyphal expansion-inhibiting rate: 80% or more)	5 (hyphal expansion-inhibiting rate: 80% or more)	5 (hyphal expansion-inhibiting rate: 80% or more)	5 (hyphal expansion-inhibiting rate: 80% or more)	5 (hyphal expansion-inhibiting rate: 80% or more)	5 (hyphal expansion-inhibiting rate: 80% or more)	5 (Controlling rate: 40 or more)	4 (1% or more and less than 20%)	5 (hyphal expansion-inhibiting rate: 80% or more)	5 (hyphal expansion-inhibiting rate: 80% or more)	5 (hyphal expansion-inhibiting rate: 80% or more)		> 80	
COC(=O)[C@]1(C)CC[C@H](Cc2ccc(F)cc2)[C@@]1(O)Cn1cncn1 (racemic) [Compound I-53, methyl-(1RS, 2SR,3RS)-3-(4-fluorobenzyl)-2-hydroxy-1-methyl-2-(1H-1,2,4-triazol-1-ylmethyl)cyclopentanecarboxylate]	5 (hyphal expansion-inhibiting rate: 80% or more)	5 (hyphal expansion-inhibiting rate: 80% or more)	5 (81 to 100)	5 (hyphal expansion-inhibiting rate: 80% or more)	5 (hyphal expansion-inhibiting rate: 80% or more)	5 (hyphal expansion-inhibiting rate: 80% or more)	5 (hyphal expansion-inhibiting rate: 80% or more)	5 (hyphal expansion-inhibiting rate: 80% or more)	5 (hyphal expansion-inhibiting rate: 80% or more)	5 (Controlling rate: 40 or more)	1 (60% or more and less than 80%)	5 (hyphal expansion-inhibiting rate: 80% or more)	5 (hyphal expansion-inhibiting rate: 80% or more)	5 (hyphal expansion-inhibiting rate: 80% or more)		> 80	≥ 80
